Consider eight molecules from patent US20050009924A1 (priority 2003, published 2005).

In one data set the test system is human hepatoma G2 cells. As to the kind of experiment: Cytotoxicity assay (XTT colorimetric), Hep G2. It counts as cell-based. The conditions noted are these: Homo sapiens, HepG2; 48 h of drug exposure. (In general: Formazan colour is commonly taken as a measure of viable cells.)
Data set [1] concerns hepatitis B virus transfected hepatoma cell lines, HepG 2.2.15 cells. The data set can be described thus: Cytotoxicity assay, 2.2.15 cells. The conditions noted are these: Homo sapiens, HepG2.2.15; 48 h of drug exposure. It counts as cell-based, human.
Data set [2] in a line: MTT relative viability, PhTERT-SEAP (H1299) cells. The conditions noted are these: human.
Method: The tetrazolium reagent (MTT; 3-(4,5-di-methylthiazol)-2,5-diphenyl tetrazolium bromide, USB) was designed to yield a colored formazan upon metabolic reduction by viable cells. Approximately […] cells were plated onto each well of a 96-well plate and incubated in 5% CO2 at 37° C. for 24 h. To assess the in vitro cytotoxicity, each compound was dissolved in DMSO and prepared immediately before the experiments and was diluted into the complete medium before addition to cell cultures. Test compounds were then added to the culture medium for designated various concentrations. After 48 h, an amount of 25 μL of MTT was added to each well, and the samples were incubated at 37° C. for 4 h. A 100 μL solution of lysis buffer containing 20% SDS and 50% N,N-dimethylformamide was added to each well and incubated at 37° C. for another 16 h. The absorbency at 550 nm was measured using an ELISA reader.
Non small lung cancer cells H1299 (telomerase positive) were grown in RPMI 1640 media supplemented with 10% fetal bovine serum, 100 units/mL penicillin and 100 mg/mL streptomycin in a humidified atmosphere with 5% CO2 at 37° C. The hTERT immortalized hTERT-BJ1 (BD Biosciences Clontech)^39 were grown in DMEM media supplemented with 10% fetal calf serum, 100 units/mL penicillin and 100 mg/mL streptomycin, 1 mM sodium pyruvate, and 4 mM I-arginine in a humidified atmosphere with 5% CO2 at 37° C. Culture media were changed every 3 days. […] The stable clones derived from H1299 or hTERT-BJ1 were cultured using conditions that are similar to their parental cells.
Data set [3] concerns transcriptional activity of hTERT. As to the kind of experiment: SEAP reporter assay of hTERT expression, PhTERT-SEAP (H1299). The format is cell-based, human. The method in brief:
(§1)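 Read-out: rate of absorbance rise at 405 nm from p-nitrophenyl phosphate (12 mM final) hydrolysis by secreted alkaline phosphatase in heat-treated (65° C, 10 min) culture medium. Drugs at varying amounts were applied for 24 h after a 24 h pre-culture at 37° C.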

The nature of data set [4]: MTT relative viability, PhTERT-SEAP (hTERT-BJ1) cells. The conditions noted are these: human.
A further data set relates to rat glioma C6 cells. The data set can be described thus: Cytotoxicity assay (XTT colorimetric), C6 cells. The note with it: Rattus norvegicus, C6; 48 h of drug exposure. It counts as cell-based.
In data set [5] the test system is transcriptional activity of hTERT. The data set can be described thus: SEAP reporter assay of hTERT expression, PhTERT-SEAP (hTERT-BJ1). It counts as cell-based, human. The procedure, abridged:
as §1
For orientation: Reporter assays use an easily measured gene product as a stand-in for the process of interest.

Setting [6] is: hTERT-BJ1 cells, stable PhTERT-SEAP reporter clone.
[7] abbreviates: Homo sapiens, NCI-H1299, hTERT-H1299, read-out: Relative SEAP activity (%).
Where [8] appears, read: Homo sapiens, hTERT-BJ1, read-out: Relative SEAP activity (%).

Each structure is given as a SMILES string. A value given as a limit tells only on which side of the number the result lay.

In general, IC50 refers to the midpoint of a concentration-inhibition curve. A higher IC50 goes with weaker potency in that assay. One may read the melting point as the temperature of the solid-liquid transition. Broadly, the viability is a read-out of living cells in per cent, often relative to untreated cells.

Consider `O=C1c2ccccc2C(=O)c2c(NC(=O)[C@@H]3C[C@H]3c3ccccc3)ccc(NC(=O)[C@@H]3C[C@H]3c3ccccc3)c21` (relative stereo) [VI27, 1,4-Bis(trans-2-phenyl-1-cyclopropaneamido)-9,10-anthracenedione], for which the melting point was 272 to 274 °C. Besides, the IC50 in the data set on human hepatoma G2 cells is greater than 20 µM. Moreover, the IC50 in data set [1] worked out at 19.5 µM. For the same molecule, in data set [2], the viability at 48 h, 1.8 µM turned out to be 101 ± 2.4%; the viability at 48 h, 18 µM turned out to be 100 ± 4.7%; the viability at 48 h, 189 µM was determined as 94 ± 3.5%. In data set [3] (1.8 μM, PhTERT-SEAP(hTERT-H1299)), this molecule displayed an SEAP/vibility of 0.94. The molecule further showed an SEAP/vibility in data set [3] (18 μM, PhTERT-SEAP(hTERT-H1299)) of 0.93. Further, the SEAP/vibility in data set [3] (189 μM, PhTERT-SEAP(hTERT-H1299)) is reported as 0.92. Besides, the activity at 1.8 µM in data set [3] (Homo sapiens, NCI-H1299, 1.8 μM, PhTERT-SEAP(hTERT-H1299), read-out: Relative SEAP activity (%)) amounted to 95 ± 7.7%. For the same molecule, the activity at 18 µM in data set [3] (Homo sapiens, NCI-H1299, 18 μM, PhTERT-SEAP(hTERT-H1299), read-out: Relative SEAP activity (%)) came out at 93 ± 3.2%. Also, the activity at 189 µM in data set [3] (Homo sapiens, NCI-H1299, 189 μM, PhTERT-SEAP(hTERT-H1299), read-out: Relative SEAP activity (%)) came out at 87 ± 3.6%. In data set [4] (setting [6]), the viability at 48 h, 1.8 µM was 92 ± 16.9%; the viability at 48 h, 18 µM was found to be 97 ± 18.2%; the viability at 48 h, 189 µM was found to be 104 ± 10.7%. For the same molecule, in the data set with rat glioma C6 cells, the 50% inhibitory concentration (IC50) was greater than 20 µM. The same molecule had an SEAP/vibility in data set [5] (1.8 μM, PhTERT-SEAP (hTERT-BJ1)) of 0.89. The same molecule yielded an SEAP/vibility in data set [5] (18 μM, PhTERT-SEAP (hTERT-BJ1)) of 0.99. Further, in data set [5] (189 μM, PhTERT-SEAP (hTERT-BJ1)), the SEAP/vibility was found to be 0.98. In data set [5] (Homo sapiens, 1.8 μM, PhTERT-SEAP (hTERT-BJ1), read-out: Relative SEAP activity (%)), the activity at 1.8 µM was 92 ± 16.9%. The activity at 18 µM in data set [5] (Homo sapiens, 18 μM, PhTERT-SEAP (hTERT-BJ1), read-out: Relative SEAP activity (%)) was 97 ± 18.2%. In addition, in data set [5] (Homo sapiens, 189 μM, PhTERT-SEAP (hTERT-BJ1), read-out: Relative SEAP activity (%)), the activity at 189 µM stood at 102 ± 16.6%.

Take `CCNc1cccc2c1C(=O)c1cccc(NCC)c1C2=O` [IVa, 1,5-Bis(ethylamino)anthraquinone]: the melting point lay within 193 to 195 °C. Further, the IC50 in the data set with human hepatoma G2 cells is greater than 20 µM. The IC50 in data set [1] is greater than 20 µM. Moreover, in data set [2], the viability at 48 h, 3.3 µM was found to be 106 ± 7.4%; the viability at 48 h, 33 µM turned out to be 104 ± 3.7%; the viability at 48 h, 339 µM is 103 ± 6.4%. The activity at 3.3 µM in data set [3] (Homo sapiens, NCI-H1299, 3.3 μM, hTERT-H1299, read-out: Relative SEAP activity (%)) came out at 108 ± 6.3%. Besides, the activity at 33 µM in data set [3] (Homo sapiens, NCI-H1299, 33 μM, hTERT-H1299, read-out: Relative SEAP activity (%)) is 101 ± 6.8%. The activity at 339 µM in data set [3] (Homo sapiens, NCI-H1299, 339 μM, hTERT-H1299, read-out: Relative SEAP activity (%)) was determined as 95 ± 11%. Besides, in data set [4], the viability at 48 h, 3.3 µM was determined as 100 ± 4.8% and the viability at 48 h, 33 µM amounted to 97 ± 1%. In addition, the viability at 48 h, 339 µM in data set [4] (hTERT-BJ1 cells) was 99 ± 3.2%. In the data set with rat glioma C6 cells, this molecule registered a concentration for half-maximal inhibition (IC50) greater than 20 µM. The activity at 3.3 µM in data set [5] (Homo sapiens, 3.3 μM, hTERT-BJ1, read-out: Relative SEAP activity (%)) turned out to be 94 ± 17.4%. Besides, the activity at 33 µM in data set [5] (Homo sapiens, 33 μM, hTERT-BJ1, read-out: Relative SEAP activity (%)) is 96 ± 8.5%. Besides, the activity at 339 µM in data set [5] (Homo sapiens, 339 μM, hTERT-BJ1, read-out: Relative SEAP activity (%)) turned out to be 66 ± 11.8%.

`CC(C)Nc1cccc2c1C(=O)c1cccc(NC(C)C)c1C2=O` [IVc, 1,5-Bis(isopropylamino)anthraquinone] displayed a melting point of 170 to 172 °C. The molecule further came in with a half-inhibitory concentration (IC50) with human hepatoma G2 cells of 7.64 ± 2.38 µM. The molecule further displayed an IC50 in data set [1] of 19 µM. In addition, in data set [2], the viability at 48 h, 3.1 µM amounted to 114 ± 7.6%; the viability at 48 h, 31 µM worked out at 111 ± 4.7%; the viability at 48 h, 310 µM was 50 ± 7.5%. In data set [3] (setting [7]), the activity at 3.1 µM was 94 ± 4.1%, the activity at 31 µM came out at 93 ± 2% and the activity at 310 µM worked out at 66 ± 4.7%. In data set [4] (hTERT-BJ1 cells), the viability at 48 h, 3.1 µM came out at 101 ± 4.5%; the viability at 48 h, 31 µM turned out to be 93 ± 6.5%; the viability at 48 h, 310 µM is 98 ± 12.9%. For the same molecule, the IC50 in the data set with rat glioma C6 cells is greater than 20 µM. In data set [5] (setting [8]), the activity at 3.1 µM came to 32 ± 18.3%, the activity at 31 µM came to 23 ± 20.5% and the activity at 310 µM is -2%.

`CCCNc1cccc2c1C(=O)c1cccc(NCCC)c1C2=O` [IVf, 1,5-Bis(propylamino)anthraquinone] came in with a melting point of 153 to 154 °C. For the same molecule, in the data set on human hepatoma G2 cells, half-maximal inhibition (IC50) was put at 1.74 ± 0.14 µM. The molecule further gave a concentration for half-maximal inhibition (IC50) in data set [1] of 1.94 µM. In data set [2], the viability at 48 h, 3.1 µM was determined as 99 ± 7.6%; the viability at 48 h, 31 µM stood at 98 ± 5.8%; the viability at 48 h, 310 µM was 46 ± 9.5%. Besides, in data set [3] (setting [7]), the activity at 3.1 µM was 101 ± 15.3%, the activity at 31 µM turned out to be 100 ± 5.6% and the activity at 310 µM came out at 89 ± 8.3%. Further, in data set [4] (hTERT-BJ1 cells), the viability at 48 h, 3.1 µM was 97 ± 5.6%; the viability at 48 h, 31 µM turned out to be 93 ± 8.9%; the viability at 48 h, 310 µM came to 42 ± 8.1%. Moreover, the IC50 in the data set on rat glioma C6 cells stood at 16 ± 0.68 µM. Further, in data set [5] (setting [8]), the activity at 3.1 µM is 18 ± 16.7%, the activity at 31 µM worked out at 19 ± 24.6% and the activity at 310 µM is -7%.

`NCCCCCNc1cccc2c1C(=O)c1cccc(NCCCCCN)c1C2=O` [IVm, 1,5-Bis(aminopentylamino)-anthraquinone] had a melting point of 113 to 115 °C. Further, in the data set on human hepatoma G2 cells, the 50% inhibitory concentration (IC50) is 17.4 ± 0.74 µM. The molecule also came in with a half-inhibitory concentration (IC50) in data set [1] greater than 20 µM. This molecule also gave a half-inhibitory concentration (IC50) in the data set with rat glioma C6 cells of 8.36 µM.

`O=C1c2cccc(NCc3ccccc3)c2C(=O)c2cccc(NCc3ccccc3)c21` [IVr, 1,5-Bis(benzylamino)-anthraquinone] gave a melting point of 218 to 220 °C. In the data set with human hepatoma G2 cells, this molecule showed an IC50 greater than 20 µM. For the same molecule, the IC50 in data set [1] is greater than 20 µM. This molecule had an IC50 in the data set on rat glioma C6 cells greater than 20 µM.

`O=C1c2cccc(NCCc3ccccc3)c2C(=O)c2cccc(NCCc3ccccc3)c21` [IVs, 1,5-Bis(phenylethylamino)-anthraquinone] came in with a melting point of 205 to 207 °C. This molecule came in with a half-inhibitory concentration (IC50) in the data set with human hepatoma G2 cells greater than 20 µM. The IC50 in data set [1] was greater than 20 µM. In data set [2], the viability at 48 h, 2.2 µM is 94 ± 5.2%; the viability at 48 h, 22 µM was 97 ± 3.2%; the viability at 48 h, 223 µM is 77 ± 4.2%. For the same molecule, the activity at 2.2 µM in data set [3] (Homo sapiens, NCI-H1299, 2.2 μM, hTERT-H1299, read-out: Relative SEAP activity (%)) amounted to 105 ± 3%. The activity at 22 µM in data set [3] (Homo sapiens, NCI-H1299, 22 μM, hTERT-H1299, read-out: Relative SEAP activity (%)) came to 103 ± 9.5%. In data set [3] (Homo sapiens, NCI-H1299, 223 μM, hTERT-H1299, read-out: Relative SEAP activity (%)), the activity at 223 µM stood at 96 ± 2.9%. In data set [4], the viability at 48 h, 2.2 µM turned out to be 97 ± 4%; the viability at 48 h, 22 µM stood at 92 ± 1%; the viability at 48 h, 223 µM turned out to be 81 ± 4.7%. In addition, the IC50 in the data set with rat glioma C6 cells was greater than 20 µM. Further, in data set [5] (Homo sapiens, 2.2 μM, hTERT-BJ1, read-out: Relative SEAP activity (%)), the activity at 2.2 µM turned out to be 115 ± 12.9%. The activity at 22 µM in data set [5] (Homo sapiens, 22 μM, hTERT-BJ1, read-out: Relative SEAP activity (%)) is 103 ± 12.3%. Also, in data set [5] (Homo sapiens, 223 μM, hTERT-BJ1, read-out: Relative SEAP activity (%)), the activity at 223 µM amounted to 133 ± 23.8%.

In turn, `NCCCCCNc1cccc2c1C(=O)c1c(NCCCCCN)cccc1C2=O` [Vm, 1,8-Bis(aminopentylamino)-anthraquinone] displayed a melting point of 115 to 116 °C. This molecule also yielded an IC50 in the data set on human hepatoma G2 cells of 0.09 µM. This molecule also gave a half-maximal inhibitory concentration (IC50) in data set [1] of 1.29 µM. This molecule had an IC50 with rat glioma C6 cells of 0.11 ± 0.01 µM.
